Results on 3 compounds are retold here after paper PMC10176505, “PYK-SubstitutionOME: an integrated database containing allosteric coupling, ligand affinity and mutational, structural, pathological, bioinformatic and computational information about pyruvate kinase isozymes” (Database: The Journal of Biological Databases and Curation, 2023).

Assay [1] addresses T1, hLPYK (Homo sapiens, UniProt P30613).
T1 construct: gene PKLR; full-length liver isozyme; homotetramer; purified or partially purified
Briefly: enzyme kinetics, allosteric linkage analysis. Format: biochemical. Particulars: allosteric activator site; effector binding in absence of PEP.

Assay [2] deals with T2, rM1PYK (Oryctolagus cuniculus, UniProt P11974).
T2 construct: gene PKM; rabbit muscle M1 isozyme; homotetramer; crystal structures
T2 sequence (P11974 2-531): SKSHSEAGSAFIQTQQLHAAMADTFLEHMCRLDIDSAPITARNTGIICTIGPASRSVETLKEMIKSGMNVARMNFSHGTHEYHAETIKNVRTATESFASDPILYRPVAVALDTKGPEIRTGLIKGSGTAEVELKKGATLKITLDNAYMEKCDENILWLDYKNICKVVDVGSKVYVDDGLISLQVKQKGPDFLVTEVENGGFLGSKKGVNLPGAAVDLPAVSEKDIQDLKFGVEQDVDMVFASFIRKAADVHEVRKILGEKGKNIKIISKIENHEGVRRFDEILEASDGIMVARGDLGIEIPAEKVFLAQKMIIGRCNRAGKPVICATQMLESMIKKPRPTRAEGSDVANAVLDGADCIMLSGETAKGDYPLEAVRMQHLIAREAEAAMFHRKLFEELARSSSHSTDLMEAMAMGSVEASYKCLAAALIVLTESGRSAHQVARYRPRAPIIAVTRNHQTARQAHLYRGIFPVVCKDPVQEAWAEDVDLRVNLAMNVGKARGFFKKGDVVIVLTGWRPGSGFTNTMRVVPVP
Put plainly: X-ray crystal structure, […] Å. Type of assay: binding. Particulars: active site of some subunits; may stem from the crystallisation medium.

Assay [3] concerns the target T1, hLPYK. Briefly: enzyme kinetics, allosteric linkage analysis. Type of assay: biochemical. As to conditions: allosteric inhibitor site; effector binding in absence of PEP; read-out: Kix-Ala. The source says:
enzyme kinetics, allosteric linkage analysis on hLPYK | (ii) Kix-Ala, the binding of Ala

pKd: −log10 of the molar value.

T1 sequence (P30613 1-543 isoform P30613-2): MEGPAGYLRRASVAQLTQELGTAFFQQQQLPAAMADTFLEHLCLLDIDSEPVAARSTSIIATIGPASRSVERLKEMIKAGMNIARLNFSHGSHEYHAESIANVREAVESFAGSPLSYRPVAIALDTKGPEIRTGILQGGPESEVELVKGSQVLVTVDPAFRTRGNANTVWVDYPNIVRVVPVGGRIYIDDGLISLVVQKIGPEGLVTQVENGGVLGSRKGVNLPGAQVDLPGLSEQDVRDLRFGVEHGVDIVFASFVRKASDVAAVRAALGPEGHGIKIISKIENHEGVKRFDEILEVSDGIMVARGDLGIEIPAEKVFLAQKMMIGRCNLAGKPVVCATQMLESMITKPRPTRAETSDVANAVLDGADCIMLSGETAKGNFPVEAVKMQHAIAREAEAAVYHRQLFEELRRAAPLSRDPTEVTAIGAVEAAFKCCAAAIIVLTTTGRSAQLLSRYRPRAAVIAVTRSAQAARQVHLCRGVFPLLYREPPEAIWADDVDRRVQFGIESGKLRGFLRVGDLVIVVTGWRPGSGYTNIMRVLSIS

`O=P(O)(O)OC[C@H]1OC(O)(COP(=O)(O)O)[C@@H](O)[C@@H]1O` (stereo partly drawn) [fructose-1,6-bisphosphate]: the Kix-FBP result in assay [1] is “(iii) Kix-FBP, the binding of Fru-1,6-BP”.
As to `O=C(O)CCC(=O)O` [succinate], the “X-ray crystal structure, 2.2 Å” value in assay [2] was “active sites are populated by either a phosphonate analogue of PEP or succinate”.
On to `C[C@H](N)C(=O)O` [alanine], for which the pKd in assay [3] is 3.60.
